Experimental data as given in patent publication US12492173B2, “Herbicidal substituted N-tetrazolyl aryl carboxamides” (Bayer Aktiengesellschaft, priority 2019, dated 2025).

Columns and labels:
Assay type in all cases: in vivo
[1] = system: Abutilon theophrasti; test: Pre-emergence herbicidal action, ABUTH; design: key to Herbicidal action against ABUTH: % activity: 100 = plants have died, 0 = like control plants; settings: for herbicidal activity ABUTH / herbicidal action ABUTH: dosage 320 g/ha; for herbicidal activity ABUTH: scored visually after 3 weeks vs untreated controls (100% = plants have died); for Herbicidal action against ABUTH: comparative experiment
How it was run: (§1)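 Pre-emergence, sandy loam soil; WP/EC formulation applied to covering soil surface, 600–800 l/ha water + 0.2% wetter; greenhouse, 3 wk; visual % damage vs untreated (0–100%).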

[2] = system: Polygonum convolvulus; test: Pre-emergence herbicidal action, POLCO; settings: dosage 320 g/ha; for herbicidal activity POLCO: scored visually after 3 weeks vs untreated controls (100% = plants have died)
How it was run: as §1

[3] = system: Abutilon theophrasti; test: Post-emergence herbicidal action, ABUTH; design: key: % herbicidal action vs untreated; 100 = plants died, 0 = like control; settings: for Herbicidal action against ABUTH: comparative experiment, 20 g of a.i./ha
How it was run: (§2)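 WP or EC formulations, diluted in water at 600 to 800 l/ha with 0.2% wetting agent, are sprayed onto green parts of one-leaf-stage plants grown in sandy loam. Visual assessment of percent damage relative to untreated controls follows after approximately 3 weeks in the greenhouse.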

[4] = system: Matricaria inodora; test: Post-emergence herbicidal action, MATIN; design: key: % herbicidal action vs untreated; 100 = plants died, 0 = like control; settings: for Herbicidal action against MATIN: comparative experiment
How it was run: as §2

[5] = system: Pharbitis purpurea; test: Post-emergence herbicidal action, PHBPU
How it was run: as §2

[6] = system: Setaria viridis; test: Post-emergence herbicidal action, SETVI; design: key: % herbicidal action vs untreated; 100 = plants died, 0 = like control; settings: for Herbicidal action against SETVI: comparative experiment
How it was run: as §2

[7] = system: Stellaria media; test: Post-emergence herbicidal action, STEME; design: key: % herbicidal action vs untreated; 100 = plants died, 0 = like control; settings: for Herbicidal action against STEME: comparative experiment
How it was run: as §2

[8] = post-emergence, 20 g of a.i./ha

SMILES	herbicidal activity ABUTH [1] [%]	herbicidal activity POLCO [2] [%]	herbicidal action ABUTH ([3]; Dosage 80 g/ha)	herbicidal action MATIN ([4]; Dosage 80 g/ha)	herbicidal action PHBPU ([5]; Dosage 80 g/ha)	herbicidal action SETVI ([6]; Dosage 80 g/ha)	herbicidal action STEME ([7]; Dosage 80 g/ha)	herbicidal action ABUTH ([3]; post-emergence, dosage 80 g/ha) [%]	herbicidal action MATIN ([4]; post-emergence, dosage 80 g/ha) [%]	herbicidal action PHBPU ([5]; post-emergence, dosage 80 g/ha) [%]	herbicidal action SETVI ([6]; post-emergence, dosage 80 g/ha) [%]	herbicidal action STEME ([7]; post-emergence, dosage 80 g/ha) [%]	further results
Cn1nnnc1NC(=O)c1ccc(C(F)(F)F)c(CS(C)(=O)=O)c1C(F)(F)C(F)(F)F [Example 1-552]	100	90	90	90	100	80	90	–	–	–	–	–	–
CCCn1nnnc1NC(=O)c1ccc(C(F)F)c(CS(C)(=O)=O)c1Cl [Example 3-322]	100	100	100	90	90	80	100	–	–	–	–	–	–
CSCc1c(C(F)(F)F)ccc(C(=O)Nc2nnnn2C)c1C [Example 1-83]	100	100	–	–	–	–	–	90	100	100	100	100	–
Cn1nnnc1NC(=O)c1ccc(C(F)(F)F)c(CSC2CC2)c1Cl [Example 1-302]	100	100	–	–	–	–	–	100	90	100	100	100	–
CCn1nnnc1NC(=O)c1ccc(C(F)(F)F)c(C[S+]([O-])CC)c1Cl (stereo not shown) [Example 2-300]	100	100	–	–	–	–	–	90	90	90	100	100	–
CCn1nnnc1NC(=O)c1ccc(C(F)F)c(C[S+](C)[O-])c1SC (stereo not shown) [Example 2-171]	100	90	100	100	100	90	100	–	–	–	–	–	–
CCSCc1c(C(F)F)ccc(C(=O)Nc2nnnn2C)c1Cl [Example 1-323]	100	100	–	–	–	–	–	100	100	100	100	100	Herbicidal action against SETVI ([6]; post-emergence, 5 g of a.i./ha): 100
CCCn1nnnc1NC(=O)c1ccc(C(F)(F)F)c(C[S+](C)[O-])c1SC (stereo not shown) [Example 3-162]	100	100	–	–	–	–	–	100	100	90	100	100	–
CCn1nnnc1NC(=O)c1ccc(C(F)F)c(CSC)c1SC [Example 2-170]	100	100	100	100	90	90	100	–	–	–	–	–	–
CCSCc1c(C(F)(F)F)ccc(C(=O)Nc2nnnn2C)c1Cl [Example 1-299]	100	90	–	–	–	–	–	100	90	90	90	100	Herbicidal action against ABUTH ([1]; 20 g of a.i./ha): 90; Herbicidal action against MATIN ([4]; post-emergence, 5 g of a.i./ha): 80; Herbicidal action against STEME ([7]; post-emergence, 5 g of a.i./ha): 100
CCn1nnnc1NC(=O)c1ccc(C(F)(F)F)c(C[S+](C)[O-])c1Cl (stereo not shown) [Example 2-297]	100	80	–	–	–	–	–	80	100	100	100	100	–
CCSCc1c(C(F)(F)F)ccc(C(=O)Nc2nnnn2C)c1Br [Example 1-383]	100	100	–	–	–	–	–	100	90	90	90	100	Herbicidal action against ABUTH ([1]; 80 g of a.i./ha): 100; Herbicidal action against ABUTH ([3]; post-emergence): 90; Herbicidal action against SETVI [6, 8]: 90; Herbicidal action against STEME [7, 8]: 100
CCSCc1c(C(F)(F)F)ccc(C(=O)Nc2nnnn2CC)c1Cl [Example 2-299]	100	90	–	–	–	–	–	100	100	90	100	100	–
CCn1nnnc1NC(=O)c1ccc(C(F)(F)F)c(CS(C)(=O)=O)c1Cl [Example 2-298]	100	90	80	100	90	90	100	–	–	–	–	–	–
CC[S+]([O-])Cc1c(C(F)(F)F)ccc(C(=O)Nc2nnnn2C)c1Cl (racemic) [Example 1-300]	100	100	–	–	–	–	–	90	100	90	90	100	–
CCn1nnnc1NC(=O)c1ccc(C(F)(F)F)c(C[S+](C)[O-])c1SC (stereo not shown) [Example 2-162]	100	100	100	100	90	90	100	–	–	–	–	–	–
Cc1ccc(C(=O)Nc2nnnn2C)c(Cl)c1C[S+](C)[O-] (racemic) [Example 1-288]	–	–	90	100	90	100	100	–	–	–	–	–	herbicidal action ABUTH [1]: 90%; herbicidal action POLCO [2]: 80%
Cn1nnnc1NC(=O)c1ccc(C(F)(F)F)c(C[S+]([O-])CC(F)(F)F)c1Cl (racemic) [Example 1-312]	100	90	–	–	–	–	–	100	100	100	100	100	–
Cn1nnnc1NC(=O)c1ccc(C(F)(F)F)c(CSCC2CC2)c1Cl [Example 1-314]	100	100	–	–	–	–	–	100	100	100	100	100	–
CCS(=O)(=O)Cc1c(C(F)F)ccc(C(=O)Nc2nnnn2C)c1Cl [Example 1-325]	100	100	100	80	100	100	100	–	–	–	–	–	–
CCn1nnnc1NC(=O)c1ccc(C(F)F)c(CS(=O)(=O)CC)c1Cl [Example 2-325]	100	100	100	80	90	100	100	–	–	–	–	–	–
CCn1nnnc1NC(=O)c1ccc(C(F)(F)F)c(CSCC(F)(F)F)c1Cl [Example 2-311]	100	80	90	100	90	100	100	–	–	–	–	–	–
CC[S+]([O-])Cc1c(C(F)(F)F)ccc(C(=O)Nc2nnnn2C)c1Br (racemic) [Example 1-384]	100	90	–	–	–	–	–	100	90	90	90	90	Herbicidal action against ABUTH ([1]; 80 g of a.i./ha): 100; Herbicidal action against ABUTH ([3]; post-emergence): 90; Herbicidal action against MATIN [4, 8]: 90; Herbicidal action against SETVI [6, 8]: 90
Cc1c(C(=O)Nc2nnnn2C)ccc(C(F)F)c1C[S+](C)[O-] (stereo not shown) [Example 1-108]	–	–	80	100	90	80	100	–	–	–	–	–	herbicidal action ABUTH [1]: 100%; herbicidal action POLCO [2]: 90%
CCCn1nnnc1NC(=O)c1ccc(C(F)(F)F)c(CSCC)c1C [Example 3-86]	–	–	80	90	90	90	100	–	–	–	–	–	herbicidal action ABUTH [1]: 100%; herbicidal action POLCO [2]: 90%
